# Measurements taken from PMC11256303 (ACS Omega, 2024).
# Target: α-amylase
# Assay: in vitro α-amylase inhibition
# Format: biochemical
# Conditions: read-out: alpha-amylase IC50 ± SEM, standard acarbose
row,IC50 [µM],Compound
1,15.3 ± 0.3,Cc1ccc(/C=N\c2nsc(Nc3ccc(Cl)c(Cl)c3)n2)cc1 [Compound 4]
2,1.9 ± 0.1,Clc1ccc(/C=N\c2nsc(Nc3ccc(Cl)c(Cl)c3)n2)cc1Cl [Compound 6]
3,1.5 ± 0.1,FC(F)(F)c1cccc(Nc2nc(/N=C\c3ccc(Cl)cc3)ns2)c1 [Compound 13]
4,16.2 ± 0.3,COc1ccccc1/C=N\c1nsc(Nc2ccc(Cl)c(Cl)c2)n1 [Compound 8]
5,17.7 ± 0.3,COc1cccc(/C=N\c2nsc(Nc3ccc(Cl)c(Cl)c3)n2)c1 [Compound 5]
6,20.1 ± 0.4,Clc1ccc(Nc2nc(/N=C\c3ccc(Br)cc3)ns2)cc1Cl [Compound 7]
7,0.8 ± 0.05,"FC(F)(F)c1cccc(Nc2nc(/N=C/c3ccc(Cl)cc3Cl)ns2)c1 [Compound 15, (E)-3-((2,4-dichlorobenzylidene)amino)-N-(3-(trifluoromethyl)phenyl)-1,2,4-thiadiazol-5-amine]"
